Data set [1] can be described thus: Cell viability MTS assay (cytotoxicity). The format is cell-based. The settings on record: human; A-431 cells, 48 hrs incubation; read-out: IC50, MTS assay for cytotoxicity against A-431. On the procedure: A-431 ([…], human, ATCC CRL-1555™) cells grown in DMEM (Dulbeco's Modified Eagle's Medium, Gibco #11885) were seeded at a density of 1×10^4 cells/well into 96-well plates and incubated at 37° C. for 18 hrs under the supply of 5% CO2 until the cells stably adhered to the bottom. […] After incubation for 48 hrs in the presence of the test compound, the cells were assayed for viability.
The cells in each well was added with 21 μl of a mixture of 20:1 (v/v) of an MTS solution [(3-(4,5-dimethylthiazol-2-yl)-5-(3-carboxymethoxyphenyl)-2-(4-sulfophenyl)-2H-tetrazolium, Promega, Cat#65421; 2 mg/ml] and a PMS solution [Phenazine methosulfate, Sigma #P9625; 1 mg/ml], and incubated for 2 hrs, followed by measuring absorbance at 490 nm on a microplate reader (Molecular device, spectraMax M2). Relative to the control (media), viability by drug concentration was determined from the measurements of formazan, and the results are given in Table 2, below.
In general terms: Formazan colour is commonly taken as a measure of viable cells.

In data set [2] the test system is HUVECs (human umbelical vein endothelial cells). Nature of the data set: Transwell assay, VEGF-induced cell migration in HUVECs. The class given is cell-based. The settings on record: 10 ng/ml VEGF 24 hrs, n=3. As to the method:
To examine the inhibitory effect of the compounds obtained in the Examples on VEGF (Vascular endothelial growth factor)-induced cell migration in HUVECs (human umbelical vein endothelial cells), a transwell assay was performed as follows.
HUVECs, provided from ATCC (American Type Culture Collection), were incubated in EGM-2 (Endothelial growth Medium-2 Medium) including 10% FBS, penicillin (100 unit/ml) and 100 μg/ml streptomycin sulfate plus various growth factors at 37° C. in an atmosphere of 5% CO2. After the change of the medium with growth factor-free EBM-2 (Endothelial Basal Medium-2 Medium), the cells were subjected to transwell assay.
After for 24 hours, the cells were fixed for 1 min with ethanol and were stained with a dye. Cell migration was evaluated by counting cells which moved through the pores.
In addition, cells were treated with Compound No. 250 (Example 26) at various concentrations given in Table 3, and assayed for cell migration, as conducted with Compounds 103, 110, 218, 273, 275, 276, 290, 312, 428, 442, and 509. The results were compared with those obtained after non-treatment (no treat) or treatment with 10 ng/mL VEGF.
Results were expressed as average numbers (n=3) of HUVECs which moved cross the membrane. Test results are summarized in Table 3 for compounds 103, 110, 218, 273, 275, 276, 290, 312, 428, 442, and 509, and in Table 4 for compound 250.

Marks after values point to notes of the source that are not given here.

The record followed here is patent publication US9227955B2, “Compound having angiogenesis inhibitory activity, method for preparing same, and pharmaceutical composition comprising same” (Boryung Pharmaceutical Co., Ltd., priority 2011, dated 2016).

For `O=C(Nc1cccc(Cl)c1)c1cc(F)c(Cl)nc1NC1CCN(Cc2ccccc2)CC1` [Compound 302, 2-(1-benzylpiperidin-4-ylamino)-6-chloro-N-(3-chlorophenyl)-5-fluoronicotinamide], the IC50 at 48 h in data set [1] is 38.1 µM. As to `COc1ccc(NC(=O)c2cccnc2NC2CCN(Cc3ccccc3)CC2)cc1OC` [Compound 443, 2-(1-Benzylpiperidin-4-ylamino)-N-(3,4-dimethoxyphenyl)nicotinamide], the IC50 at 48 h in data set [1] was 140 µM. On to `COC(=O)c1c(NC(=O)c2cccnc2NC2CCN(Cc3ccccc3)CC2)sc2c1CCNC2` [Compound 442, 2-{[2-(1-Benzylpiperidin-4-ylamino)pyridine-3-carbonyl]amino}-4,5,6,7-tetrahydro-thieno[2,3-c]pyridine-3-carboxylic acid methyl ester], for which, in data set [2] (25 μM), the “No. of migration cells/field” value is 15*** cells/field.

In the case of `O=C(Nc1ccc(Oc2ccccc2)cc1)c1cccnc1NC1CCN(Cc2ccccc2)CC1` [Compound 110, 2-(1-Benzylpiperidin-4-ylamino)-N-(4-phenoxyphenyl)nicotinamide], the “No. of migration cells/field” value in data set [2] (25 μM) is 10*** cells/field. Further, the IC50 at 48 h in data set [1] came to 22.2 µM. In the case of `O=C(Nc1cccc(Cl)c1)c1cc(F)c(Cl)nc1NC1CCN(CCO)CC1` [Compound 312, 6-chloro-N-(3-chlorophenyl)-5-fluoro-2-[1-(2-hydroxyethyl)piperidin-4-ylamino]nicotinamide], the “No. of migration cells/field” value in data set [2] (50 μM) is listed as 14*** cells/field. Moreover, the IC50 at 48 h in data set [1] worked out at 20.7 µM. As to `CC1(C)CC(Nc2ncccc2C(=O)Nc2cccc(Cl)c2)CC(C)(C)N1CCO` [Compound 242, N-(3-Chlorophenyl)-2-(1-(2-hydroxyethyl)-2,2,6,6-tetramethylpiperidin-4-ylamino)nicotinamide], the IC50 at 48 h in data set [1] is 81.9 µM. The same measure, in the same setting: the value for `CCCCC(CC)CNC(=O)c1cccnc1NC1CC(C)(C)NC(C)(C)C1` (centres unmarked) [Compound 517, N-(2-ethylhexyl)-2-(2,2,6,6-tetramethylpiperidin-4-ylamino)nicotinamide] was 50.7 µM. Take `Cc1cnc(NC(=O)c2cccnc2NC2CCN(Cc3ccccc3)CC2)s1` [Compound 428, 2-(1-Benzylpiperidin-4-ylamino)-N-(5-methylthiazol-2-yl)nicotinamide]: the “No. of migration cells/field” value in data set [2] (25 μM) is on record as 14.5*** cells/field. The IC50 at 48 h in data set [1] turned out to be 125 µM. As for `CCCCC(CC)CNC(=O)c1cccnc1NC1CCN(Cc2ccccc2)CC1` (centres unmarked) [Compound 436, 2-(1-Benzylpiperidin-4-ylamino)-N-(2-ethylhexyl)nicotinamide], in data set [1], the IC50 at 48 h was determined as 34 µM. As to `O=C(Nc1cccc(Cl)c1)c1cccnc1N[C@@H]1CCCN(Cc2ccccc2)C1` [Compound 267, (R)-2-(1-benzylpiperidin-3-ylamino)-N-(3-chlorophenyl)nicotinamide], in data set [1], the IC50 at 48 h stood at 20.9 µM. On to `O=C(Nc1cccc(Cl)c1)c1cccnc1N[C@H]1CCCNC1` [Compound 275, (S)—N-(3-chlorophenyl)-2-(3-piperidylamino)nicotinamide], for which the “No. of migration cells/field” value in data set [2] (50 μM) is given as 11*** cells/field. The IC50 at 48 h in data set [1] turned out to be 94.6 µM.

As for `COC(=O)c1c(NC(=O)c2cccnc2NC2CCCN(Cc3ccccc3)C2)sc2c1CCNC2` (centres unmarked) [Compound 509, 2-{[2-(1-benzylpiperidin-3-ylamino)pyridine-3-carbonyl]amino}-4,5,6,7-tetrahydrothieno[2,3-c]pyridine-3-carboxylic acid methyl ester], the “No. of migration cells/field” value in data set [2] (25 μM) is recorded as 7*** cells/field.

Regarding `O=C(Nc1cccc(Cl)c1)c1cccnc1N[C@H]1CCCN(Cc2ccccc2)C1` [Compound 273, (S)-2-(1-benzylpiperidin-3-ylamino)-N-(3-chlorophenyl)nicotinamide], the “No. of migration cells/field” value in data set [2] (50 μM) is listed as 12*** cells/field. Besides, in data set [1], the IC50 at 48 h turned out to be 40.9 µM. `O=C(Nc1cccc(Cl)c1)c1cccnc1N[C@@H]1CCCNC1` [Compound 269, (R)—N-(3-chlorophenyl)-2-(3-piperidylamino)nicotinamide]: in data set [1], the IC50 at 48 h was 88.9 µM. Same read-out and setting: with `CCN(CC)CCN1CCC(Nc2ncccc2C(=O)Nc2cccc(Cl)c2)CC1` [Compound 244, N-(3-chlorophenyl)-2-[1-(2-N,N-diethylamino-ethyl)piperidin-4-ylamino]nicotinamide] the figure was 94.6 µM. Regarding `CCCCC(CC)CNC(=O)c1ccc(Cl)nc1NC1CCN(CCO)CC1` (centres unmarked) [Compound 515, 6-Chloro-N-(2-ethylhexyl)-2-[1-(2-hydroxyethyl)piperidin-4-ylamino]nicotinamide], in data set [1], the IC50 at 48 h came out at 23.8 µM. As for `O=C(Nc1cccc(Cl)c1)c1cccnc1NN1CCN(CCO)CC1` [Compound 241, N-(3-Chlorophenyl)-2-[4-(2-hydroxyethyl)piperazin-1-ylamino)nicotinamide], the half-inhibitory concentration (IC50) at 48 h in data set [1] is 164 µM. Regarding `O=C(NC(Cc1ccccc1)c1ccccc1)c1cccnc1NC1CCN(Cc2ccccc2)CC1` (centres unmarked) [Compound 426, 2-(1-Benzylpiperidin-4-ylamino)-N-(1,2-diphenylethyl)nicotinamide], the IC50 at 48 h in data set [1] was determined as 39.7 µM.

Take `O=C(Nc1cccc(Cl)c1)c1cccnc1NC1CCN(CCO)CC1` [Compound 218, N-(3-Chlorophenyl)-2-[1-(2-hydroxyethyl)piperidin-4-ylamino]nicotinamide]: the “No. of migration cells/field” value in data set [2] (25 μM) is reported as 7.5*** cells/field. Regarding `O=C(Nc1cccc(Cl)c1)c1cccnc1SC1CCN(Cc2ccccc2)CC1` [Compound 290, 2-(1-Benzylpiperidin-4-ylsulfanyl)-N-(3-chlorophenyl)nicotinamide], the “No. of migration cells/field” value in data set [2] (50 μM) is reported as 14.5*** cells/field. For the same compound, the IC50 at 48 h in data set [1] worked out at 54.8 µM. As for `O=C(Nc1cccc(Cl)c1)c1cccnc1NC1CCN(C(C(=O)O)C(=O)O)CC1` [Compound 246, 2-(4-(3-(3-Chlorophenylcarbamoyl)pyridin-2-ylamino)piperidin-1-yl)maloic acid], in data set [1], the half-inhibitory concentration (IC50) at 48 h is 101 µM.

For `C=CCN1CCC(Nc2ncccc2C(=O)Nc2cccc(Cl)c2)CC1` [Compound 243], in data set [1], the IC50 at 48 h is 170 µM. Same read-out and setting: with `O=C(Nc1cccc(Cl)c1)c1ccc(Cl)nc1NC1CCN(Cc2ccccc2)CC1` [Compound 301, 2-(1-Benzylpiperidin-4-ylamino)-6-chloro-N-(3-chlorophenyl)nicotinamide] the figure was 67.6 µM.

In the case of `O=C(Nc1cccc(Cl)c1)c1cccnc1Nc1ccc(Oc2ccccc2)cc1` [Compound 104, N-(3-Chlorophenyl)-2-(4-phenoxyanilino)nicotinamide], the IC50 at 48 h in data set [1] was determined as 28.6 µM. Take `O=C(Nc1ccc(Oc2ccccc2)cc1)c1cccnc1Nc1ccc(Oc2ccccc2)cc1` [Compound 111, 2-(4-Phenoxyanilino)-N-(4-phenoxyphenyl)nicotinamide]: the IC50 at 48 h in data set [1] came to 135 µM. On to `CC(C)(C)OC(=O)N1CCC[C@H](Nc2ncccc2C(=O)Nc2cccc(Cl)c2)C1` [Compound 276, (S)—N-(3-chlorophenyl)-2-(1-tert-butoxycarbamoylpiperidin-3-ylamino)nicotinamide], for which the “No. of migration cells/field” value in data set [2] (50 μM) is reported as 12.5*** cells/field. Regarding `CC1(C)CC(Nc2ncccc2C(=O)Nc2cccc(Cl)c2)CC(C)(C)N1` [Compound 201, N-(3-Chlorophenyl)-2-(2,2,6,6-tetramethylpiperidin-4-ylamino)nicotinamide], the IC50 at 48 h in data set [1] came out at 54.5 µM. With `CC(C)(C)OC(=O)N1CCC(Nc2ncccc2C(=O)Nc2cccc(Cl)c2)CC1` [Compound 208, N-(3-Chlorophenyl)-2-(1-tert-butoxycarbamoylpiperidin-4-ylamino)nicotinamide], the IC50 at 48 h in data set [1] came out at 86.1 µM.

`CC1(C)CNc2cc(NC(=O)c3cccnc3NC3CCN(Cc4ccccc4)CC3)ccc21` [Compound 117, 2-(1-Benzylpiperidin-4-ylamino)-N-(3,3-dimethyl-2,3-dihydro-1H-indol-6-yl)nicotinamide]: the IC50 at 48 h in data set [1] was found to be 91.1 µM.

With `O=C(Nc1cccc(Cl)c1)c1cccnc1NC1CCN(Cc2cccnc2)CC1` [Compound 249, N-(3-chlorophenyl)-2-[1-(pyridin-3-ylmethyl)piperidin-4-ylamino]nicotinamide], in data set [1], the IC50 at 48 h was 102 µM.

Consider `O=C(Nc1cccc(Cl)c1)c1cccnc1N[C@H]1CCCN(CCO)C1` [Compound 274, (S)—N-(3-chlorophenyl)-2-[1-(2-hydroxyethyl)piperidin-3-ylamino]nicotinamide], for which, in data set [1], the IC50 at 48 h is 111 µM.

`O=C(Nc1cccc(Cl)c1)c1ccc(Cl)nc1NC1CCN(CCO)CC1` [Compound 311]: the IC50 at 48 h in data set [1] was found to be 62.3 µM.

Usually IC50 stands for the concentration needed to halve the response being measured.
